Measurements published in patent US20050120398A1, “Animal model for HCV infection” (Vertex Pharmaceuticals Incorporated, priority 2003, published 2005).
Entries after “also recorded” stand apart in the source; their conditions may differ.

What was measured:
[1] = test system: Ad.WT.HCVpro; experiment: Liver injury in mice infected with adenovirus expressing WT HCV protease; conditions: 300 mg/kg orally twice a day for the first three days; 10^11 IFU/mice; sacrificed after 7 days
[2] = test system: Ad.MT.HCVpro (mutant HCV protease fused with SEAP); experiment: HCV protease mouse model: SEAP in serum, mutant HCV protease adenovirus; type: in vivo, SCID mice; conditions: 300 mg/kg orally twice a day; 10^9.5 IFU/mice Ad.MT.HCVpro; serum 24 hours post-infection
[3] = test system: Wild type HCV protease; experiment: Steatosis associated with HCV protease expression, Oil Red O staining of liver sections; type: in vivo, SCID mice; conditions: 300 mg/kg BID oral for the initial 3 days; 10^11 IFU/mouse; sacrificed at 7 days
Experimental: FIG. 25 depicts that steatosis associated with HCV protease expression can be ameliorated by HCV protease inhibitor VX-950. SCID mice were injected with 10^11 IFU/mouse of replication defective adenovirus expressing Wild type HCV protease or mutant HCV protease or SEAP alone (n=6). One group of mice (n=6) injected with adenovirus expressing wild type HCV protease were treated with 300 mg/kg BID via oral route for the initial 3 days. All the mice were sacrificed at 7 days and liver sections were stained with Oil Red O. A significant accumulation of fat in the livers of mice expressing wild type HCV protease compared to either mutant HCV protease or SEAP alone groups (20× magnification).
1. Cryostat frozen sections of livers stored at −80° C. were tested.
2. The Oil Red O Solution was prepared as follows:
a) Stock Solution Oil Red O: 500 mg Oil red O stain (Sigma O-0625) was dissolved in 100 ml isopropanol at room temperature overnight with stirring. The solution was filtered through a #1 Whatman filter. The solution was stored at room temperature protected from light.
b) Working Oil Red Solution was prepared fresh the day of assay. 40% water was mixed with 60% Oil Red O stock by inversion.
c) The working solution was kept at room temperature for 1 hour before filtering. Particulate material was filtered out using a #1 Whatman filter paper.
3. […]
13. The results were assessed by microscopy.

CCC[C@H](NC(=O)[C@@H]1[C@H]2CCC[C@H]2CN1C(=O)[C@@H](NC(=O)[C@@H](NC(=O)c1cnccn1)C1CCCCC1)C(C)(C)C)C(=O)C(=O)NC1CC1 [VX-950]
protection from liver injury (gross appearance and H&E liver pathology) [1]: protects mice from Liver injury
effect on Mutant HCV protease activity (SEAP in serum) [2]: No effect
amelioration of steatosis (Oil Red O staining) [3]: effective at ameliorating steatosis; also recorded: ameliorated
